Measured values from the supplement of paper PMC10307832.

Assays:
Experiment in all cases: relative viability (nuclei count vs DMSO), 5 days (fraction); higher = more cells survive
XMD14-99 + Phenformin = compound: CN1CCN(CC1)C2=CC(=C(C=C2)NC3=NC(=C(S3)C(=O)C4=C(C=CC=C4Cl)Cl)N)OC [XMD14-99] + N=C(N)NC(=N)NCCc1ccccc1 [Phenformin] (partner 250 µM)
How it was run: (§1)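 For relative viability, nuclei counts in treated wells were divided by those in vehicle wells. Lung cancer cell lines had been pin-tool dosed in 1536-well plates the day after seeding and cultured for 5 days, then fixed and stained in one step (final 0.05% Triton X-100, 1% formaldehyde, 1 ug/ml Hoechst) and imaged at 4×. Doses were one drug alone or a fixed anchor-drug dose plus five library-drug doses (not always all listed) in √10 steps, and values are duplicate-plate medians.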

XMD14-99 + Luminespib = compound: CN1CCN(CC1)C2=CC(=C(C=C2)NC3=NC(=C(S3)C(=O)C4=C(C=CC=C4Cl)Cl)N)OC [XMD14-99] + CCNC(=O)c1noc(-c2cc(C(C)C)c(O)cc2O)c1-c1ccc(CN2CCOCC2)cc1 [Luminespib] (partner 0.01 µM)
How it was run: as §1

AZD1208 + Linsitinib = compound: N[C@@H]1CCCN(c2c(/C=C3\SC(=O)NC3=O)cccc2-c2ccccc2)C1 [AZD1208] + C[C@]1(O)C[C@@H](c2nc(-c3ccc4ccc(-c5ccccc5)nc4c3)c3c(N)nccn32)C1 [Linsitinib] (partner 1 µM)
How it was run: as §1

XMD14-99 + Decitabine = compound: CN1CCN(CC1)C2=CC(=C(C=C2)NC3=NC(=C(S3)C(=O)C4=C(C=CC=C4Cl)Cl)N)OC [XMD14-99] + Nc1ncn([C@H]2C[C@H](O)[C@@H](CO)O2)c(=O)n1 [Decitabine] (partner 2 µM)
How it was run: as §1

Cell Line	relative viability (XMD14-99 + Phenformin; first compound 0.08 µM)	relative viability (XMD14-99 + Phenformin; first compound 0.8 µM)	relative viability (XMD14-99 + Phenformin; first compound 2.53 µM)	relative viability (XMD14-99 + Phenformin; first compound 8 µM)	relative viability (XMD14-99 + Luminespib; first compound 0.08 µM)	relative viability (XMD14-99 + Luminespib; first compound 0.8 µM)	relative viability (XMD14-99 + Luminespib; first compound 2.53 µM)	relative viability (XMD14-99 + Luminespib; first compound 8 µM)	relative viability (AZD1208 + Linsitinib; first compound 0.08 µM)	relative viability (AZD1208 + Linsitinib; first compound 0.253 µM)	relative viability (AZD1208 + Linsitinib; first compound 0.8 µM)	relative viability (AZD1208 + Linsitinib; first compound 2.53 µM)	relative viability (AZD1208 + Linsitinib; first compound 8 µM)	relative viability (XMD14-99 + Decitabine; first compound 0.08 µM)	relative viability (XMD14-99 + Decitabine; first compound 0.8 µM)	relative viability (XMD14-99 + Decitabine; first compound 2.53 µM)	relative viability (XMD14-99 + Decitabine; first compound 8 µM)
NCI-H1975	0.379	0.41	0.325	0.317	0.268	0.238	0.206	0.209	0.991	1	0.911	0.981	0.975	0.495	0.412	0.449	0.317
NCI-H1944	0.194	0.203	0.173	0.157	0.672	0.754	0.533	0.575	1.14	1.19	1.01	0.953	0.82	0.48	0.458	0.414	0.372
LU99A	0.888	0.917	0.728	0.603	0.288	0.252	0.247	0.219	0.504	0.5	0.51	0.397	0.432	0.852	0.918	0.784	0.669
NCI-H2405	0.379	0.39	0.373	0.231	0.659	0.767	0.861	0.475	0.8	0.789	0.737	0.883	0.853	0.704	0.749	0.628	0.648
NCI-H2023	0.378	0.422	0.338	0.245	0.719		0.617	0.471	0.651	0.56	0.576	0.633	0.568	0.222	0.212	0.228	0.166
HCC-15	0.51	0.499	0.419	0.321	0.412	0.258	0.214	0.256	0.811	0.864	0.648	0.793	0.655	0.668	0.605	0.599	0.415
HCC-44	0.261	0.16	0.303	0.168	1.01	0.968	1.07	0.753	0.634	0.676	0.665	0.672	0.593	1.01	0.902	0.898	0.911
COR-L23	0.446	0.418	0.372	0.301	0.578	0.613	0.515	0.419	0.84	1.09	0.824	0.825	0.771	0.467	0.428	0.41	0.382
HCC-78	0.681	0.551	0.743	0.451					0.513	0.495	0.45	0.439	0.415	0.709	0.646	0.822	0.47
NCI-H1299									1.03	1.13	0.997	1.01	1.08				
NCI-H838	0.612	0.556	0.474	0.383	0.28	0.293	0.239	0.235	0.992	1.09	0.815	1.02	0.817	0.477	0.452	0.426	0.436
NCI-H2126	0.526	0.51	0.45	0.421	0.966	0.827	0.873	0.595	0.678	0.647	0.65	0.633	0.623	0.629	0.537	0.611	0.503
NCI-H1650	0.375	0.498	0.361	0.312	0.21	0.208	0.189	0.188						0.393	0.418	0.41	0.338
ChaGo-K-1	0.474	0.51	0.494	0.388	0.565	0.599	0.609	0.513						0.52	0.531	0.5	0.481
NCI-H1648														0.47	0.501	0.479	0.455
NCI-H1563	0.606	0.63	0.6	0.585	0.505	0.551	0.546	0.48	1.18	1.19	1.18	1.26	1.16				
A549	0.153	0.16	0.0976	0.133					0.513	0.553	0.504	0.462	0.512	0.284	0.271	0.203	0.229
NCI-H522	0.658	0.616	0.702	0.692	1.05	1.28	1.2	1.18						0.703	0.648	0.554	0.672
NCI-H2170	0.393	0.388	0.342	0.3	0.652	0.59	0.755	0.372						0.49	0.423	0.444	0.395
NCI-H1623	0.573	0.613	0.584	0.54	0.509	0.475	0.454	0.444									
SW 900	0.6	0.685	0.555	0.402	0.165	0.163	0.204	0.144						0.413	0.443	0.386	0.419
IA-LM									0.625	0.827	0.524	0.529	0.69				
CAL-12T	0.597	0.567	0.525	0.412	0.387	0.524	0.358	0.346	0.721	1.13	0.761	0.86	0.909				
EBC-1									0.981	1.08	0.821	0.905	0.764				
